Experimental data reported in ChEMBL document CHEMBL5331141.
Active and inactive are the calls of the source. No cut-off for these calls is given here.

Tested on: HEK293
Assay: Effect on HEK293 cells lacking human mu opioid receptor assessed as inhibition of cAMP accumulation at 1 uM
Assay type: functional, cell-based

Question: `C=C(C)[C@@H]1CCC(C)=C[C@H]1c1c(O)cc(CCC)cc1O` was tested. Which Activity did it give?
Answer: Its Activity is “inactive”.

Question: With `C=C(C)[C@@H]1CCC(C)=C[C@H]1c1c(O)cc(CCCCC)cc1O` as the compound, how does the Activity read?
Answer: The Activity was “inactive”.

Question: Which Activity does the source give for `C=CCN1CC[C@]23c4c5ccc(O)c4O[C@H]2C(=O)CC[C@@]3(O)[C@H]1C5` here?
Answer: Its Activity is “inactive”.
